The results in this text go back to patent US10870647B2, “Imidazopyridine derivative, method for preparing same, and pharmaceutical composition containing same as active ingredient for preventing or treating cancer” (DAEGU-GYEONGBUK MEDICAL INNOVATION FOUNDATION, priority 2016, dated 2020).

Molecules are shown by their SMILES.

Holding throughout (experiment): Kinase selectivity, scanMAX Kinase assay panel (DiscoverX), % control at 1 uM
Holding throughout (type): binding

Assay [1] has as its target T1, scanMAX Kinase assay panel (Homo sapiens, UniProt Q13464).
T1 construct: purchased DiscoverX
The conditions noted are these: ROCK1; 1 uM; read-out: Percent Control (%). The method in brief:
(§1)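 Read-out is percent of control, derived from the signal with compound relative to positive and negative controls: (compound − positive)/(negative − positive) × 100. Each enzyme received test drug at 1 uM in DMSO, and values under 35% count as active.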

For assay [2], the target named is T2, scanMAX Kinase assay panel (Homo sapiens, UniProt P29320).
T2 construct: purchased DiscoverX
T2 sequence (P29320 21-983): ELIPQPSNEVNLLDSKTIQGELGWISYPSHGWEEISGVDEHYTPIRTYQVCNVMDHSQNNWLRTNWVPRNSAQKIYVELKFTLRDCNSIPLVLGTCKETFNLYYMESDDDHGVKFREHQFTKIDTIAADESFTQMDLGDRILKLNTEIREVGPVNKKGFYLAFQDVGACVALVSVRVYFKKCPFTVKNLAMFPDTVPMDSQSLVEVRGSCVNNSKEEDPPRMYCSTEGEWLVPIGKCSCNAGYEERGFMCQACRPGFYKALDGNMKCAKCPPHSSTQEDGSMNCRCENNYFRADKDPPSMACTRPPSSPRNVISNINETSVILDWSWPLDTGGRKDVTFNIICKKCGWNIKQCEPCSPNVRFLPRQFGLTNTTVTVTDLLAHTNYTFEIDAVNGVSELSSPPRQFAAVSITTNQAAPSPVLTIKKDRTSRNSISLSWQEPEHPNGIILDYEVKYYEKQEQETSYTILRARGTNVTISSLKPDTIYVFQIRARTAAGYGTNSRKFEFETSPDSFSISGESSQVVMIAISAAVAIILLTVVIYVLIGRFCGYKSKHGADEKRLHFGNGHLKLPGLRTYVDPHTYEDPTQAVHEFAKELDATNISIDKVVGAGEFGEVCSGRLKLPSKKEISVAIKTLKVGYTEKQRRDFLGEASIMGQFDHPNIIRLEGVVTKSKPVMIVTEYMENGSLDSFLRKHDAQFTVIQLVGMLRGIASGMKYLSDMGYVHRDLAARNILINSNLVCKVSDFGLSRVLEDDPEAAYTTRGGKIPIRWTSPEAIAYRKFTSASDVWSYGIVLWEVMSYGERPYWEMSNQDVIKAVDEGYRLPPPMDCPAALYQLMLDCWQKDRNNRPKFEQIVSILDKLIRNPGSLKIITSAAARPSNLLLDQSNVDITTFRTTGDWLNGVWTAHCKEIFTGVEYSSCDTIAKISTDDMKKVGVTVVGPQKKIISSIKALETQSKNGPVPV
The conditions noted are these: EPHA3; 1 uM; read-out: Percent Control (%). The method in brief: as §1

Assay [3] deals with T3, scanMAX Kinase assay panel (Homo sapiens, UniProt P15056, V600E).
T3 construct: purchased DiscoverX
T3 sequence (P15056 whole entry V600E): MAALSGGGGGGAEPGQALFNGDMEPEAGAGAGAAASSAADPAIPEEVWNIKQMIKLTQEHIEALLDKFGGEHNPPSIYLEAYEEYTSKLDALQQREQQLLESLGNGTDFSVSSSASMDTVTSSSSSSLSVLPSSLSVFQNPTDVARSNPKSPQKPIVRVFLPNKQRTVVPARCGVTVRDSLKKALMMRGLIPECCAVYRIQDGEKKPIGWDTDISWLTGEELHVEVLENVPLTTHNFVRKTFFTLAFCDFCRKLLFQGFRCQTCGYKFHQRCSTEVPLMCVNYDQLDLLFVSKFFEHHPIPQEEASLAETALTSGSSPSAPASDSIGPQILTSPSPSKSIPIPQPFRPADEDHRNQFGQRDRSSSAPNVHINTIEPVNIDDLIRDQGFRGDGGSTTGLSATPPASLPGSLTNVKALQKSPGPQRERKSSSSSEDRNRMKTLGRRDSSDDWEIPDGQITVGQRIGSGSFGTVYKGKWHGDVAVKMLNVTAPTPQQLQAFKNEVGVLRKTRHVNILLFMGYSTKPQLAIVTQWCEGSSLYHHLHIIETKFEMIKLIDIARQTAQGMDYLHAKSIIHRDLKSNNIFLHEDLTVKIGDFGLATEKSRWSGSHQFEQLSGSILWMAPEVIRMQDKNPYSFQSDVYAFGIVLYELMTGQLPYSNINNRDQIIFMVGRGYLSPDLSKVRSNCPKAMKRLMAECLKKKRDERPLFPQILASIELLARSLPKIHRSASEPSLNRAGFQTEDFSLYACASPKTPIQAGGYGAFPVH
Conditions: BRAF (V600E); 1 uM; read-out: Percent Control (%). A digest of the protocol: as §1

Assay [4] concerns the target T4, scanMAX Kinase assay panel (Homo sapiens, UniProt P10721, A829P).
T4 construct: purchased DiscoverX
Conditions: KIT (A829P); 1 uM; read-out: Percent Control (%). A digest of the protocol: as §1

In assay [5] the target is T5, scanMAX Kinase assay panel (Homo sapiens, UniProt Q16566).
T5 construct: purchased DiscoverX
T5 sequence (Q16566 1-473): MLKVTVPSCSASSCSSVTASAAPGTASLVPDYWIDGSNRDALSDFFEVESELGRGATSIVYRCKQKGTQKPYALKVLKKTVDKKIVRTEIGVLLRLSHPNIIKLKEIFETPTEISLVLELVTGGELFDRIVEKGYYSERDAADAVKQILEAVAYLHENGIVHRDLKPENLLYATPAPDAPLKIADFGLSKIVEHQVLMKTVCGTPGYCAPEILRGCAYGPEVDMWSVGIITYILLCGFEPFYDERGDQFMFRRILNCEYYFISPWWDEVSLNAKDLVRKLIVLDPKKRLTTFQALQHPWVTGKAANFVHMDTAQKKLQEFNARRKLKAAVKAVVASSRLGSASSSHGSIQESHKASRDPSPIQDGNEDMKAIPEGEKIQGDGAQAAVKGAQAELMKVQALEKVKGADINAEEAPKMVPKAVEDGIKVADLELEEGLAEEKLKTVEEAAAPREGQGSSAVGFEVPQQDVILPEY
Conditions: CAMK4; 1 uM; read-out: Percent Control (%). The method in brief:
as §1

T4 sequence (P10721 26-976 A829P): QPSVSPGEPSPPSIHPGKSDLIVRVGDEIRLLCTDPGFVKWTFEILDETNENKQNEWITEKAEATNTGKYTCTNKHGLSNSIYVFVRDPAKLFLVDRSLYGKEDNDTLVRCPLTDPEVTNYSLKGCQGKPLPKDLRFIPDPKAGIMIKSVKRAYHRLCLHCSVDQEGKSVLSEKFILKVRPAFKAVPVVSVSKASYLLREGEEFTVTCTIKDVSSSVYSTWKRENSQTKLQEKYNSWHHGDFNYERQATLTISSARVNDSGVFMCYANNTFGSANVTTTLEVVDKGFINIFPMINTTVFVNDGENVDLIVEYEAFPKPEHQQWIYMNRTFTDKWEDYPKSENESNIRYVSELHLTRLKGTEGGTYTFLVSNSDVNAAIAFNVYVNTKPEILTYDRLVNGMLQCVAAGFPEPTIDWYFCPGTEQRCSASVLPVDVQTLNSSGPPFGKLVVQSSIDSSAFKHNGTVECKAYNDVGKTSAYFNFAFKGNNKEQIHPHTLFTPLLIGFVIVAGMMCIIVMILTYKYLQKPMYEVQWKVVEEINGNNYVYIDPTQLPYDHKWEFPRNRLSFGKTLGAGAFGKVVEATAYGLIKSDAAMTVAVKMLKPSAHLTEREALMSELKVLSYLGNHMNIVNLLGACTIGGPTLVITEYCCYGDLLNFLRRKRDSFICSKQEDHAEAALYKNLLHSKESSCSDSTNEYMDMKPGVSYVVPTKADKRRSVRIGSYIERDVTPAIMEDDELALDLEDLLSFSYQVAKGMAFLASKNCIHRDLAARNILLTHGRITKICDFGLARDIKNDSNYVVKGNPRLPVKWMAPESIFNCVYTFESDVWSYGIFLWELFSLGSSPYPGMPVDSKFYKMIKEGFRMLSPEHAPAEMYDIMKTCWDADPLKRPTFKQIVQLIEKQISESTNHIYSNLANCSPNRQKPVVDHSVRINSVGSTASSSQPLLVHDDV
T1 sequence (Q13464 whole entry): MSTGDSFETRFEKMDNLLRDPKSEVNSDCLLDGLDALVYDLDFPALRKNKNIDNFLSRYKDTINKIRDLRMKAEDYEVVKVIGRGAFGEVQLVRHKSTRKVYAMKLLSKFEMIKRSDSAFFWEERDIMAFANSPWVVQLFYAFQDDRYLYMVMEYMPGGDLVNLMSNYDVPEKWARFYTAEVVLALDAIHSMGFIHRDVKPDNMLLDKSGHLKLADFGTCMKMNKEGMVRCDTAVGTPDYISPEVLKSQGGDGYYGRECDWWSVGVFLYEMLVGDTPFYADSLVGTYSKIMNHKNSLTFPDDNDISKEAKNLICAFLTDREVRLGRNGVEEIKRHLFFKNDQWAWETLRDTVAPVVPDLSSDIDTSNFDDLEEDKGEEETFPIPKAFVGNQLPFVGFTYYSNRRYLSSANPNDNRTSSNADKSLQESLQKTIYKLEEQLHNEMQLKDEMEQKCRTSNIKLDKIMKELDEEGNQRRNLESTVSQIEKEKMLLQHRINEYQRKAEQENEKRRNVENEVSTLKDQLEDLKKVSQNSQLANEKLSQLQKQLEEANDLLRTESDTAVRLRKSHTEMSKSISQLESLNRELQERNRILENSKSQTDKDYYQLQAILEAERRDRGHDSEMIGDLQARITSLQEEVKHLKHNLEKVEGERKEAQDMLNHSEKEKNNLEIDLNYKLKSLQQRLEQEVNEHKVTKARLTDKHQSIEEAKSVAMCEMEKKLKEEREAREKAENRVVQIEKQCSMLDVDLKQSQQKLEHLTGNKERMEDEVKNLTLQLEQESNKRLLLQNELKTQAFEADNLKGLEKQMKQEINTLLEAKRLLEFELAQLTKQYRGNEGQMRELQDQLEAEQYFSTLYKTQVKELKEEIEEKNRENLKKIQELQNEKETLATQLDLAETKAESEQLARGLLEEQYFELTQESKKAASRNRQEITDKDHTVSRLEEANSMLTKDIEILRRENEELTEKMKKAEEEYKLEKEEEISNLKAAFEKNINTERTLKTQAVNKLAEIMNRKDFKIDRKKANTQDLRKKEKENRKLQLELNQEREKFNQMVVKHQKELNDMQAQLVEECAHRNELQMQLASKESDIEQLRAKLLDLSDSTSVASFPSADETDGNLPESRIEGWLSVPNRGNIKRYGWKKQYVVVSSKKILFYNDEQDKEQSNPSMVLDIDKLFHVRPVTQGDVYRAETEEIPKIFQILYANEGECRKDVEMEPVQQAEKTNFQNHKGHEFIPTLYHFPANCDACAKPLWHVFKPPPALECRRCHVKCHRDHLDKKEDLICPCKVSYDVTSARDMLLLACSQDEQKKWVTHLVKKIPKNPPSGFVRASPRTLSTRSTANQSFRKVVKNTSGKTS

On to `Cc1ccc(C(=O)Nc2ccc(CN3CCN(C)CC3)c(C(F)(F)F)c2)cc1C#Cc1cnc2c(Nc3cnn(C)c3)cccn12` [Example 1, 4-methyl-3-((8-((1-methyl-1H-pyrazol-4-yl)amino)imidazo[1,2-a]pyridin-3-yl)ethynyl)-N-(4-((4-methylpiperazin-1-yl)methyl)-3-(trifluoromethyl)phenyl)benzamide], for which the remaining binding at 1 µM worked out at 89% in assay [1]; 19% in assay [2]; 5% in assay [3]; 4% in assay [4]; 99% in assay [5].

Regarding `Cc1cn(-c2cc(NC(=O)c3ccc(C)c(C#Cc4cnc5c(Nc6cnn(C)c6)cccn45)c3)cc(C(F)(F)F)c2)cn1` [Example 12, 4-methyl-N-(3-(4-methyl-1H-imidazol-1-yl)-5-(trifluoromethyl)phenyl)-3-((8-((1-methyl-1H-pyrazol-4-yl)amino)imidazo[1,2-a]pyridin-3-yl)ethynyl)benzamide], the remaining binding at 1 µM came to 100% in assay [1]; 27% in assay [2]; 56% in assay [3]; 29% in assay [4]; 87% in assay [5].

Regarding `Cc1ccc(NC(=O)C2(C(=O)Nc3ccc(F)cc3)CC2)cc1C#Cc1cnc2c(Nc3cnn(C(C)C)c3)cccn12` [Example 78], the remaining binding at 1 µM in assay [1] turned out to be 100%; in assay [2], 76%; in assay [3], 100%; in assay [4], 21%; in assay [5], 100%.
